Source: PubChem BioAssay AID2060890 (Molecular Pharmacology Branch, DTP, NCI, 2025)
Where “and” joins values, the source holds several entries; their conditions need not be identical. Equal values may be shown once. Blank lines part the entries; values can stand above or below the molecule they belong to.

System: LG0703-F948-PDC complex spheroid viability
Experiment: Anticancer human tumor LG0703-F948-PDC patient-derived lung adenocarcinoma cell line growth inhibition [RAS]
Conditions: for viability, T/C: stronger effect = lower value
Text: RAS pathway inhibitors in Combinations in Complex Spheroids
A high-throughput screen of multi-cell type tumor spheroids was designed to identify active combinations of RAS pathway inhibitors and targeted small molecules. Complex spheroids include a stromal component modeled by human endothelial cells (HUVEC) and fibroblasts modeled by human mesenchymal stem cells (MSCs). The concentration ranges selected for each drug and investigational agent were based upon clinically achievable concentrations if the clinical Cmax of the agent was known.
Compounds. The drugs and investigational agents: abemaciclib (NSC768073), cobimetinib (NSC768068), divarasib (GDC6063, NSC841802), docetaxel (NSC628503), GDC-1971 (RLY-1971, NSC841576), gemcitabine (NSC613327), inavolisib (NSC800729), ipatasertib (NSC767898), KB-0742 (NSC834161), MRTX-1133 (NSC836407), osimertinib (NSC779217), RMC-4630 (NSC839698), RMC-6236 (NSC851965), RMC-6291 (NSC852671), Ro-3306 (NSC812927), sapanisertib (NSC764658), SN-38 (NSC673596), staurosporine (NSC755774), SY5609 (NSC837396), and tovorafenib (DAY101, NSC766906), were obtained from the National Cancer Institute (NCI) Developmental Therapeutics Program Chemical Repository. The FDA-approved anticancer drug set is available from the NCI Developmental Therapeutics Program. […] The stock solutions were prepared in dimethyl sulfoxide (DMSO, Sigma-Aldrich, St. Louis, MO, cat. D2650) at 800-fold the tested concentration and stored at -70 degrees C prior to their use. All drugs and investigational agents were tested over a range starting from a high concentration at or near the clinical Cmax and decreasing in half-log increments. If the clinical Cmax for an agent had not been determined, the highest concentration tested was 10 microM.
Cell Culture. All cells were maintained in an incubator at 37 degrees C and 5% CO2 with 95% humidity. The PDC lines were cultured according to standard operating procedures established by the NCI PDMR. All PDCs were thawed and cultured in Matrigel-coated flasks prepared with a working solution of 1X Ham's F-12 nutrient mix, without supplementation (Invitrogen, Waltham, MA, cat. 11765054), 100 U/mL penicillin-streptomycin (Invitrogen, cat. 15140122), and 2.5% Matrigel (Corning Inc., Corning, NY, cat. 354248) for the first three passages. The 362531-283-R-J2-PDC and 782815-120-R-J1-PDC lines were cultured in 6C/Colon 1B media, which includes advanced DMEM/F-12 (Thermo Fisher Scientific, cat. 12634028), 10 mM HEPES (Thermo Fisher Scientific, cat. 15630080), 1X GlutaMAX supplement (Thermo Fisher Scientific, cat. 35050061), 0.1 mg/mL primocin (InvivoGen, San Diego, CA, cat. ant-pm-2), 10% defined fetal bovine serum, heat inactivated (HyClone Laboratories Inc., Logan, UT, cat. SH30070.03HI), 50% L-WRN conditioned media (ATCC, cat. CRL-3276), 1.25 mM N-Acetyl-L-cysteine (Sigma-Aldrich, cat. A9165), 10 mM nicotinamide (Sigma-Aldrich, cat. N0636), 1X B-27 supplement (Thermo Fisher Scientific, cat. 17504044), 1X N-2 supplement (Thermo Fisher Scientific, cat. 17502048), 50 ng/mL human EGF (Thermo Fisher Scientific, cat. PHG0311), and 10 microM Y-27632 dihydrochloride (Tocris Bioscience, cat. 1254). The K12877-001-R-J1-PDC line was cultured in 6I media, which includes all 6C/Colon 1B media plus 10 ng/mL human FGF-10 (PeproTech, cat. 100-26), 1 ng/mL human FGF-2 (PeproTech, cat. 100-18B), 1 µM prostaglandin E2 (Tocris Bioscience, cat. 2296), […] hydrocortisone (Sigma-Aldrich, cat. H4001), and […] bovine insulin (Sigma-Aldrich, cat. I6634). The K86415-001-R-J1-PDC line was cultured in 6D media, which includes all 6C/Colon 1B media components minus the L-WRN conditioned media. The 485176-168-R4-J1-PDC was cultured in PANC media, which includes all 6C/Colon 1B media plus 100 ng/mL human FGF-10 (PeproTech, cat. 100-26), 500 nM SB-431542 (Selleckchem, cat. S1067), and 10 nM gastrin (Tocris Bioscience, cat. 3006). […]
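Further: spheroids exposed to agents for 7 days.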
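Wherever viability, T/C is given: 100% = DMSO vehicle wells.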

IC50 (curve of compound): > 10 µM
SMILES: C[C@@H](NC(=O)c1ncnc(N)c1Cl)c1ncc(C(=O)Nc2cc(C(F)(F)F)c(Cl)cn2)s1
viability, T/C (compound 0.0316 µM): 102% and 115% and 92.8%
viability, T/C (compound 0.1 µM): 120% [middle of 4 runs]
viability, T/C (compound 0.316 µM): 103% [middle of 4 runs]
viability, T/C (compound 1 µM): 114% [middle of 4 runs]
viability, T/C (compound 3.16 µM): 102% [middle of 4 runs]

IC50 (curve of first compound, second compound 0.000949 µM): 0.0839 µM
IC50 (curve of first compound, second compound 0.003 µM): 0.077 µM
IC50 (curve of first compound, second compound 0.00949 µM): 0.0637 µM
IC50 (curve of first compound, second compound 0.03 µM): 0.0518 µM
IC50 (curve of first compound, second compound 0.0949 µM): 0.0199 µM
IC50 (curve of first compound, second compound 0.3 µM): < 0.000949 µM
SMILES: CCc1c2c(nc3ccc(O)cc13)-c1cc3c(c(=O)n1C2)COC(=O)[C@]3(O)CC + CCn1c(-c2cccnc2C(C)OC)c2c3cc(ccc31)N1CCOC(CC(NC(=O)C(C(C)C)N(C)C(=O)C3(F)CCN(C(=O)C#CC(C)(C)N(C)C)CC3)C(=O)N3CCCC(N3)C(=O)OCC(C)(C)C2)C1
viability, T/C (second compound 0.000949 µM, first compound 0.000949 µM): 123%
viability, T/C (second compound 0.000949 µM, first compound 0.003 µM): 86.9%
viability, T/C (second compound 0.000949 µM, first compound 0.00949 µM): 103%
viability, T/C (second compound 0.000949 µM, first compound 0.03 µM): 66%
viability, T/C (second compound 0.000949 µM, first compound 0.0949 µM): 43.3%
viability, T/C (second compound 0.000949 µM, first compound 0.3 µM): 30.6%
viability, T/C (second compound 0.003 µM, first compound 0.000949 µM): 130%
viability, T/C (second compound 0.003 µM, first compound 0.003 µM): 102%
viability, T/C (second compound 0.003 µM, first compound 0.00949 µM): 103%
viability, T/C (second compound 0.003 µM, first compound 0.03 µM): 60.5%
viability, T/C (second compound 0.003 µM, first compound 0.0949 µM): 48.1%
viability, T/C (second compound 0.003 µM, first compound 0.3 µM): 30.3%
viability, T/C (second compound 0.00949 µM, first compound 0.000949 µM): 111%
viability, T/C (second compound 0.00949 µM, first compound 0.003 µM): 103%
viability, T/C (second compound 0.00949 µM, first compound 0.00949 µM): 104%
viability, T/C (second compound 0.00949 µM, first compound 0.03 µM): 62.4%
viability, T/C (second compound 0.00949 µM, first compound 0.0949 µM): 46.8%
viability, T/C (second compound 0.00949 µM, first compound 0.3 µM): 26%
viability, T/C (second compound 0.03 µM, first compound 0.000949 µM): 113%
viability, T/C (second compound 0.03 µM, first compound 0.003 µM): 93.9%
viability, T/C (second compound 0.03 µM, first compound 0.00949 µM): 87.5%
viability, T/C (second compound 0.03 µM, first compound 0.03 µM): 56%
viability, T/C (second compound 0.03 µM, first compound 0.0949 µM): 40.4%
viability, T/C (second compound 0.03 µM, first compound 0.3 µM): 27.4%
viability, T/C (second compound 0.0949 µM, first compound 0.000949 µM): 85.7%
viability, T/C (second compound 0.0949 µM, first compound 0.003 µM): 91.2%
viability, T/C (second compound 0.0949 µM, first compound 0.00949 µM): 63.3%
viability, T/C (second compound 0.0949 µM, first compound 0.03 µM): 42.7%
viability, T/C (second compound 0.0949 µM, first compound 0.0949 µM): 27.1%
viability, T/C (second compound 0.0949 µM, first compound 0.3 µM): 22.9%
viability, T/C (second compound 0.3 µM, first compound 0.000949 µM): 44%
viability, T/C (second compound 0.3 µM, first compound 0.003 µM): 49.9%
viability, T/C (second compound 0.3 µM, first compound 0.00949 µM): 46.3%
viability, T/C (second compound 0.3 µM, first compound 0.03 µM): 25.8%
viability, T/C (second compound 0.3 µM, first compound 0.0949 µM): 19.2%
viability, T/C (second compound 0.3 µM, first compound 0.3 µM): 14.1%
